Series [1] relates to HL-60 promyelocytic leukemia cells. The conditions noted are these: in vitro; cited from earlier work.
The conditions of series [2]: in vitro; cited from earlier work.
For series [3] the following is noted: in vivo; cited from earlier work.
The subject of series [4] is hematopoietic progenitor cells. The following applies: normal human peripheral blood; cited from earlier work.
Series [5] relates to white blood cell production. The conditions noted are these: cited from earlier work.
For series [6] the following is noted: ezatiostat hydrochloride in a liposomal injectable formulation, MDS patients; cited from earlier work.
Series [7] can be described thus: Stability of the amorphous form by visual inspection after storage. In kind it is physicochemical. As to the method:
The stability of the amorphous form was evaluated by visual inspection of a sample of the amorphous form prepared above after being stored at about 0-5° C. for about 8 months.

Like-named read-outs stand apart in the source and are kept apart here.

For `CCOC(=O)[C@@H](N)CCC(=O)N[C@@H](CSCc1ccccc1)C(=O)N[C@@H](C(=O)OCC)c1ccccc1` [Ezatiostat], in series [1], the “differentiation of HL-60 promyelocytic leukemia cells” value is recorded as “induce the differentiation”. For the same compound, the “potentiation of the activity of cytotoxic agents” value in series [2] and in series [3] was “potentiate the activity of cytotoxic agents” in each case. Moreover, the “colony formation of hematopoietic progenitor cells” value in series [4] is listed as “stimulate colony formation of all three lineages”. The “white blood cell production” value in series [5] (animals in which white blood cells were depleted by treatment with cisplatin or fluorouracil) and in series [5] (normal animals) was “increase white blood cell production” in each case. Besides, the hematologic improvement result in series [6] was “multi-lineage hematologic improvement”. Moreover, in series [6], the tolerability entry was “well tolerated”.
As for `CCOC(=O)[C@@H](N)CCC(=O)N[C@@H](CSCc1ccccc1)C(=O)N[C@@H](C(=O)OCC)c1ccccc1.Cl` [amorphous form, ezatiostat hydrochloride], the “visual inspection (color, texture, flowability, crystal formation)” value in series [7] (stored at about 0-5° C. for about 8 months) was “No change with respect to color, texture and flowability of the sample and no crystal formation was observed”. The “time for which the amorphous form is stable” value in series [7] (under 0-5° C.) is “at least 8 months”.
